{"source": "BindingDB's records for doi:10.1016/j.bmc.2009.03.040", "about": "(Institute For Medical Research, 2009)", "molecular_target": "T1, Lethal factor (Bacillus anthracis, UniProt P15917)", "T1 sequence (P15917 whole entry)": "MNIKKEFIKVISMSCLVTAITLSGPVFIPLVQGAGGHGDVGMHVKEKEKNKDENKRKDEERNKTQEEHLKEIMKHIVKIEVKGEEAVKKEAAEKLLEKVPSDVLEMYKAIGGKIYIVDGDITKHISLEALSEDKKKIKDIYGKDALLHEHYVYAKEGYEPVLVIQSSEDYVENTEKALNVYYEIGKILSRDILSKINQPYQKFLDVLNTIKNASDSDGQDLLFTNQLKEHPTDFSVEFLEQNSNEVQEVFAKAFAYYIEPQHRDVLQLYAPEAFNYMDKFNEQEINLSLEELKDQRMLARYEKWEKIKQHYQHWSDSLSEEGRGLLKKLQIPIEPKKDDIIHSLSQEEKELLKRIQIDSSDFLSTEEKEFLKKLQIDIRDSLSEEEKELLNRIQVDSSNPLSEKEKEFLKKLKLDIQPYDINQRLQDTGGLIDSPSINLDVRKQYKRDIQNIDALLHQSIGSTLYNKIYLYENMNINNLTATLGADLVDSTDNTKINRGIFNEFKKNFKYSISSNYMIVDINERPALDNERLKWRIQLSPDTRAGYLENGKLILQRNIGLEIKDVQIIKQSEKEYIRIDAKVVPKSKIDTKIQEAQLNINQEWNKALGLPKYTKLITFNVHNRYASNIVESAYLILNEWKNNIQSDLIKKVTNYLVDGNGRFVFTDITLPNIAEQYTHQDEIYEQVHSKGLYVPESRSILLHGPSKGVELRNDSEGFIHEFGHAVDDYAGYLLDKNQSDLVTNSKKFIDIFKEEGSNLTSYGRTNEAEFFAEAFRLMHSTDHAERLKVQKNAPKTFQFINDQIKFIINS", "assay": "Inhibition of Bacillus anthracis lethal factor assessed as cleavage of MAPKK by fluorescence peptide cleavage assay", "data": [{"smiles": "COc1ccc(-c2ccc(S(=O)(=O)Nc3sccc3-c3nc4ccccc4s3)cc2)cc1", "note": "[N-(3-(benzo[d]thiazol-2-yl)thiophen-2-yl)-4'-methoxybiphenyl-4-sulfonamide]", "values": [{"measurement": "Ki", "value": 1000, "unit": "nM"}]}]}
